These results are taken from patent publication US20110230481A2, “DERIVATIVES OF TETRABROMOBENZIMIDAZOLE, A PROCESS FOR THE PREPARATION THEREOF, A PHARMACEUTICAL COMPOSITION COMPRISING THE SAME, A METHOD OF USING THE SAME, A METHOD FOR MODULATING OR REGULATING SERINE/THREONINE KINASES, AND SERINE/THREONINE KINASES MODULATING AGENT” (SELVITA S.A., priority 2009, published 2011).

The subject of data set [1] is human chronic myelocytic leukemia K562 cells. Put plainly: Growth inhibition test (MTS). The format is cell-based. The note with it: 72 hours. As for the experimental part: (§1) Ten thousand cells of human chronic myelocytic leukemia K562 were inoculated into each well of a 96-well microplate (manufactured by Corning Corp.) using Iscove's MDM medium (culture medium) containing 10% fetal calf serum (FCS). The same day, a dimethyl sulfoxide (DMSO) solution of each test compound prepared in a concentration of 10 mmol/L was further diluted with DMSO to the desired concentrations (0.1, 0.5, 1, 2.5, 5 and 10 micromol/L), and the diluted solution was added to each well. The individual wells were further cultured in 5% carbon dioxide at 37° C. for 72 hours. After completion of the culture, 10 μl MTS (3-(4,5-Dimethyl-2-thiazolyl)-5-(carboxymethoxyphenyl)-2-(4-sulfophenyl)-2H-tetrazolium, inner salt assay (CellTiter96® AQueous One Solution Cell Proliferation Assay, Promega) was added to each well, and culturing was performed in 5% carbon dioxide at 37° C. for 2 hours. Using a microplate spectrophotometer (Synergy 2 multi-mode microplate reader (BioTek)), the absorbance of each well was measured at 490 nm. The value for cells not incorporated with a test compound was designated as 100%. By comparing these values with the absorbance difference obtained at the well in which each test compound was added, the cell viability (% viability) after treatment with the test compound was calculated.

Data set [2] relates to human prostate adenocarcinoma PC3 cells. Put plainly: Growth inhibition test (MTS). The format is cell-based. The note with it: PC-3; 72 hours. Here is the method: as §1, with “Two” for “Ten”, “prostate adenocarcinoma PC3” for “chronic myelocytic leukemia K562”, “Corp.), and” for “Corp.)”, “F12K (Ham's F12:[…] 1:1)” for “Iscove's MDM”
The test system of data set [3] is human chronic myelogenous leukemia MEG-01 cells. Put plainly: Growth inhibition test (MTS). The data set is classed as cell-based. The note with it: MEG01; 72 hours. Here is the method: as §1, with “myelogenous” for “myelocytic”, “MEG-01” for “K562”, “RPMI 8226” for “Iscove's MDM”
Data set [4] concerns human acute myeloid leukemia MOLM-13 cells. Put plainly: Growth inhibition test (MTS). The note with it: Homo sapiens, MOLM-13; MOLM13; 72 hours; read-out: Cytotoxicity in MTS assay (ED50). The data set is classed as cell-based. As for the experimental part:
as §1, with “acute myeloid” for “human chronic myelocytic”, “MOLM-13” for “K562”, “RPMI 8226” for “Iscove's MDM”

The nature of a further data set: Solubility in pH 7.4. The note with it: phosphate buffer.
A further data set has as its target PIM1 (Homo sapiens, UniProt P11309). Put plainly: Radiometric kinase assay (HotSpot).
Another data set has as its target PIM2 (Homo sapiens, UniProt Q9P1W9). Put plainly: Radiometric kinase assay (HotSpot).
The next data set addresses PIM3 (Homo sapiens, UniProt Q86V86). Put plainly: Radiometric kinase assay (HotSpot).
The target in another data set is CK2α (Homo sapiens, UniProt P68400). Put plainly: Radiometric kinase assay (HotSpot).
Chain of CK2α (P68400 whole entry): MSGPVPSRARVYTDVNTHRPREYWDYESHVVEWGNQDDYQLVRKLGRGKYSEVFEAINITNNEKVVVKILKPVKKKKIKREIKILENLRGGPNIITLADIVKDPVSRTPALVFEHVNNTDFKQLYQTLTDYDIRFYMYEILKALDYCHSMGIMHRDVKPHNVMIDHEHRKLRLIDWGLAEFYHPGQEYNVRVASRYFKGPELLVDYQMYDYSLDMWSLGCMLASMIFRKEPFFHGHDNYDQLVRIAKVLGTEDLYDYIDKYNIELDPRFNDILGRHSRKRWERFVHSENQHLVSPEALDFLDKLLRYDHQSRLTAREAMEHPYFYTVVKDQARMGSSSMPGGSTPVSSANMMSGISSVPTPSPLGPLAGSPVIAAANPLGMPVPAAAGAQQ
The next data set concerns the target CLK1 (Homo sapiens, UniProt P49759). Put plainly: Radiometric kinase assay (HotSpot).

Converted amounts (≈) assume the structure as drawn. Read-outs that look alike come from different tables or passages of the source. Some results are limits rather than exact numbers.

Chain of PIM2 (Q9P1W9 whole entry): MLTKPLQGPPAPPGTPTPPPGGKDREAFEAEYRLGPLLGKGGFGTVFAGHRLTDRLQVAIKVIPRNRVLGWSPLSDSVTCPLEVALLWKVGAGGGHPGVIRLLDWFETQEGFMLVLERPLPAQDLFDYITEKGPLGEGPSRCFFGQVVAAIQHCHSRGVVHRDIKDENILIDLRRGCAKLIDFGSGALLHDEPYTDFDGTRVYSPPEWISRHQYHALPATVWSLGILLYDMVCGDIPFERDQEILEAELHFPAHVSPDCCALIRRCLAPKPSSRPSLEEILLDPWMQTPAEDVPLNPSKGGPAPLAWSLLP
Chain of PIM1 (P11309 whole entry): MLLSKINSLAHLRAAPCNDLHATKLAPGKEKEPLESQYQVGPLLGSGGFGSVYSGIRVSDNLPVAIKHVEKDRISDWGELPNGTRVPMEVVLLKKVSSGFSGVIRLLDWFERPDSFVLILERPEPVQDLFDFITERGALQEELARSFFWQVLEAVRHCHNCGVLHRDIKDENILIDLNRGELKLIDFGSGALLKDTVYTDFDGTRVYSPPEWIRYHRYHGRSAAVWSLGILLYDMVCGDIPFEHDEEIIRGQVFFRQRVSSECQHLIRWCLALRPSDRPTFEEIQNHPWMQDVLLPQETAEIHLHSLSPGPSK
Chain of CLK1 (P49759 whole entry): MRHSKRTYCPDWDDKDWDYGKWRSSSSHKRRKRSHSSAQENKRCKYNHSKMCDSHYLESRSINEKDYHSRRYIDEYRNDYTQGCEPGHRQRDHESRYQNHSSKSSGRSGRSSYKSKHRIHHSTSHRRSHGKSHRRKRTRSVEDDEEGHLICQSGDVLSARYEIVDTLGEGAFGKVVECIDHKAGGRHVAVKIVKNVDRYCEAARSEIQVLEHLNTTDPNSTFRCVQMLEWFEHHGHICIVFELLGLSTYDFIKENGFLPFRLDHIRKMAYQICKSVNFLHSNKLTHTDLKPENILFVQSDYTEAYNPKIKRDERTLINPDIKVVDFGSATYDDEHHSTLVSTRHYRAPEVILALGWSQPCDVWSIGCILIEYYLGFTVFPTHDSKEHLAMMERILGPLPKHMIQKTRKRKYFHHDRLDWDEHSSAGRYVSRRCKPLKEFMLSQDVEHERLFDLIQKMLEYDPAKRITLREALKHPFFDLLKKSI
Experimental for CK2α: (§2) Kinase assays were performed at Reaction Biology Corporation (www.reactionbiology.com, Malvern Pa.) using the “HotSpot” assay platform. This assay platform is based on a radiometric filtration binding assay and is considered as the “gold standard” to which non-radiometric methods are compared. In this assay format, the kinase reaction is performed in the presence of 32 P-γ-ATP or 33 P-γ-ATP, followed by binding of the final radioisotope labeled peptide product to filters after which unreacted phosphate is washed away and the levels of phosphorylated peptide are measured.
Experimental for CLK1: as §2
Experimental for PIM1: as §2
Experimental for PIM2: as §2
Experimental for PIM3: as §2

As to `NCCCNc1nc2c(Br)c(Br)c(Br)c(Br)c2[nH]1` [Compound 11, N-(3-aminopropyl)-4,5,6,7-tetrabromo-1H-benzo[d]imidazol-2-amine], the “Cytotoxicity in MTS assay (ED50)” value in data set [1] was 7480 nM; in data set [2] it was 7320 nM; in data set [3], 7850 nM. Besides, the IC50 in data set [4] was found to be 1370 nM; at PIM1 it was 4.8 nM; against PIM2, 98.2 nM; against PIM3, 23.3 nM; against CK2α, 1020 nM; on CLK1, 177 nM. Also, the solubility (in general, how much of the substance goes into solution per volume) at 24 h in the data set “Solubility in pH 7.4” stood at 370 µM (≈ 187 µg/mL). In addition, the “Selectivity for Pim-1 over CK2α” value at PIM1 (ratio of IC50 values) came out at 211.7. In addition, the “Selectivity for Pim-2 over CK2α” value at PIM2 (ratio of IC50 values) is 10.3. The “Selectivity for Pim-3 over CK2α” value at PIM3 (ratio of IC50 values) came out at 43.6.
On to `CN(C)c1nc2c(Br)c(Br)c(Br)c(Br)c2[nH]1` [DMAT, reference compound], for which the “Cytotoxicity in MTS assay (ED50)” value in data set [1] is above 10000 nM; in data set [2], above 10000 nM; in [3], 8910 nM. Besides, the IC50 is 64.6 nM on PIM1 (read-out: Inhibitory activity (IC50 in nM) in radiometric cell free assay, Pim-1, ATP 1 μM, peptide 5 μM); 2460 nM on PIM2 (read-out: Inhibitory activity (IC50 in nM) in radiometric cell free assay, Pim-2, ATP 1 μM, peptide 5 μM); 87.3 nM at PIM3 (read-out: Inhibitory activity (IC50 in nM) in radiometric cell free assay, Pim-3, ATP 1 μM, peptide 20 μM); 211 nM at CLK1 (read-out: Inhibitory activity (IC50 in nM) in radiometric cell free assay, CLK1, ATP 1 μM, Myelin Basic Protein 10 μM).
